# In patent publication US20200255487A1, “A Cell-Based Seeding Assay for Huntingtin Aggregation” (THE REGENTS OF THE UNIVERSITY OF CALIFORNIA, priority 2017, published 2020):
# Tested on: HTT-ΔN17-46Q-GFP
# Assay: cell-based HTT seeding assay (ΔN17-1E cells)
# Design: species or system human
# Conditions: for induction of intracellular HTT-ΔN17-46Q-GFP aggregation by extracellularly applied seeds: ΔN17-1E (HEK293) cells, substance applied as seed, FIG. 4
# Text: Described herein is the development of a cell-based HTT seeding assay. A DNA construct encoding Exon1 of mutant human HTT with a 46 polyQ repeat was designed (FIG. 1C). This mutant HTT was engineered to delete amino acid residues 2-16 and was fused with a green fluorescent protein (GFP) at its C-terminus, named HTT-ΔN17-46Q-GFP hereafter. The HTT-ΔN17-46Q-GFP was then cloned into a pcDNA3 vector and transfected into HEK293 cells. Clones of stably transfected cells expressing HTT-ΔN17-46Q-GFP were selected to generate individual cell lines. Expression of the transgene in the cell lines was characterized to confirm its morphology, expression level and subcellular localization. Line 1E, named ΔN17-1E cells, was selected based on it moderate transgene expression with minimal protein aggregates at the baseline. Based on this cell line, a cell-based HTT seeding assay was developed. Extracellular application of preformed HTT aggregates or biosamples from HD patients as “seeds”, to ΔN17-1E cells could induce intracellular aggregation of HTT-ΔN17-46Q-GFP proteins (FIG. 1 through FIG. 3). This seeding-induced aggregation event is similar to in vitro HTT aggregation, which preformed aggregates, or seeds, nucleates and facilitates the aggregation of HTT exon 1 monomers. Moreover, this activity is specific to utilizing aggregates of polyQ proteins since neither aggregates of β-amyloid and Tau nor biosamples from AD and PD patients could elicit HTT-ΔN17-46Q-GFP aggregation (FIG. 4). The level of induced aggregates positively correlates with the amount of recombinant seeds added. Importantly, the seedability of the biosamples also correlates with the disease stage of the patients. Currently, the assay has been optimized to be performed in a high-throughput format, making it more capable with large quantity of samples. Thus, this cell-based seeding assay could be extremely useful for detecting seedible species in the biosamples, which is shown by us to increase as the disease progressing, and thus could be used as a biomarker for HD diagnosis and clinical trials, as well as for drug discovery.
Substance,"HTT-ΔN17-46Q-GFP aggregation induced by HD CSF, with overexpression (ΔN17 cells, overexpression by transit transfection, induced by HD CSF, FIG. 10)","HTT-ΔN17-46Q-GFP aggregation induced by preformed mHTT-exon1 seeds, with overexpression (ΔN17 cells, overexpression by transit transfection, induced by preformed mHTT-exon1 seeds, FIG. 10)",induction of intracellular HTT-ΔN17-46Q-GFP aggregation by extracellularly applied seeds
"DNAJB6: DNAJB6 of the Hsp40 family, overexpressed in ΔN17 cells by transit transfection",dramatically reduced,dramatically reduced,–
fibrillar Aβ: fibrillar Aβ used as non-HTT seed control [reference compound],–,–,did not elicit the aggregation
phosphorylated tau: phosphorylated tau used as non-HTT seed control [reference compound],–,–,did not elicit the aggregation
